Experimental data taken from US20240239767A1 (AstraZeneca AB, priority 2022, published 2024).

How the values were obtained:
[1] = target: GSK3b (Glycogen synthase kinase-3 beta) (Homo sapiens, UniProt P49841); test: Assay 6 - GSK3b assay (ThermoFisher, FRET Z-Lyte); format: biochemical; conditions: geometric mean; ATP Conc: 10.000 μM; read-out: Assay 6 (GSK3B FRET-Z-Lyte CR) GMean IC50 (μM) ATP Conc: 10.000
Protocol: This assay measures the activity of the compounds at GSK3b (Glycogen synthase kinase-3 beta).
The test compounds were screened in 1% DMSO (final) in the well. For 10-point titrations, 3-fold serial dilutions are conducted from the starting concentration of 10 μM.
• Bar-coded Corning, low volume NBS, black 384-well plate • 1. 2.5 μL—4× Test Compound or 100 nL 100× plus 2.4 μL kinase buffer • 2. 5 μL—2× Peptide/Kinase Mixture • 3. 2.5 μL—4× ATP Solution • 4. 30-second plate shake • 5. 60-minute Kinase Reaction incubation at room temperature • 6. 5 μL—Development Reagent Solution • 7. 30-second plate shake • 8. 60-minute Development Reaction incubation at room temperature • 9. Read on fluorescence plate reader and analyse the data
In step 2, the 2× GSK3β (GSK3 beta)/Ser/Thr (Glycogen synthase kinase-3 beta/Serine/Threonine) 09 mixture is prepared in 50 mM HEPES (4-(2-hydroxyethyl)-1-piperazineethanesulfonic acid) pH 7.5, 0.01% BRIJ-35, 10 mM MgCl2, 1 mM EGTA (egtazic acid). The final 10 μL Kinase Reaction consists of 0.22-0.92 ng GSK3β (GSK3 beta) and 2 μM Ser/Thr 09 in 50 mM HEPES pH 7.5, 0.01% BRIJ-35, 10 mM MgCl2, 1 mM EGTA.
In step 3 the ATP Solution is diluted to a 4× working concentration in Kinase Buffer (50 mM HEPES pH 7.5, 0.01% BRIJ-35, 10 mM MgCl2, 1 mM EGTA).
In Step 6 the Development Reagent is diluted 1:512 in Development Buffer (10× Novel PKC Lipid Mix: 2 mg/mL Phosphatidyl Serine, 0.2 mg/mL DAG in 20 mM HEPES, pH 7.4, 0.3% CHAPS).
SelectScreen® Kinase Profiling Service uses XLfit from IDBS. The dose response curve is curve fit to model number 205 (sigmoidal dose-response model).

[2] = target: T1, PCSK9 (Homo sapiens, UniProt Q8NBP7, G670E/V474I); test: cell-based
Target sequence in this assay (Q8NBP7 31-152): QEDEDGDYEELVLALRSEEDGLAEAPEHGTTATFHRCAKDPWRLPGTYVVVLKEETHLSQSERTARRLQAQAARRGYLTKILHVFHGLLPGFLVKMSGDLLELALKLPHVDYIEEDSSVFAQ
Target sequence in this assay (Q8NBP7 153-692 V474I/G670E): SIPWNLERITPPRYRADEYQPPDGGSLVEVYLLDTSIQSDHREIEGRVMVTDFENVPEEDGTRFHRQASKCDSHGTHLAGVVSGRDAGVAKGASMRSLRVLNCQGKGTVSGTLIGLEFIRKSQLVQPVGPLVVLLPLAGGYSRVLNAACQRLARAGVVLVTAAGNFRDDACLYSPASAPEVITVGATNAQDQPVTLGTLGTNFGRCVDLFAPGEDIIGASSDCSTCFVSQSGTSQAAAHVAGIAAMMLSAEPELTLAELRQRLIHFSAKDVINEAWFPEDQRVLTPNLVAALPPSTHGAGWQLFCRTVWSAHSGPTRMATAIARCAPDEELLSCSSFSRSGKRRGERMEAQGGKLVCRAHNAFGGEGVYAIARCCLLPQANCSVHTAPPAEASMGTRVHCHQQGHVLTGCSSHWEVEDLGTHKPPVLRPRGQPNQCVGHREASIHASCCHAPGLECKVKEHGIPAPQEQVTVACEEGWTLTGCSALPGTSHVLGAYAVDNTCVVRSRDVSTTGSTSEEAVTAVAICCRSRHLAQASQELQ
Excerpt: This assay measures for PCSK9 antagonist activity based on a test compound's capacity to restore LDL-C uptake in HepG2 cells. The assay is based on exogenous PCSK9 and LDL-C complexed with a pH-sensitive dye. Outside the cells, at neutral pH, the pHrodo Red-LDL is dimly fluorescent but upon LDLR mediated endocytosis it fluoresces brightly. PCSK9 traffics the LDLR to intracellular degradation and reduces uptake of LDL-C. Inhibition of PCSK9 reduces LDLR degradation and the increased LDL-C uptake is quantified by fluorescence microscopy.
Cell medium: MEM supplemented with 10% FBS, 1× NEAA and Sodium Pyruvate
Assay medium: OptiMem supplemented with penicillin/streptomycin
Cells: HepG2 (ATCC #HB-8065)
Cryopreserved HepG2 cells were thawed in assay medium and centrifuged for 5 min at 250 g. Supernatant was discarded and the cell pellet resuspended in cell medium and counted with a Nucleocounter. Cells were again centrifuged 5 min at 250 g and the pellet was resuspended to 500000 cells/mL in assay medium. • 2. 20 μL of above cell mix was dispensed into black pclear TC treated 384 well plates with Multidrop Combi and left at room temperature for 20 minutes. • 3. Plates were incubated at 37° C., 5% CO2 for 24 h
Test compounds were prepared in concentration response in DMSO with a half-log dilution factor in DMSO in Echo 384 LDV plates starting at 10 mM. • 2. 30 nL of above test compounds were dispensed with Echo 655 to cells for a top concentration of 10 μM • 3. […] Plates were incubated at 37° C., 5% CO2 for 24 h
10 μL pHrodo Red-LDL in assay medium was dispensed to cells with Multidrop Combi for 6 μg/mL • 2. Plates were incubated at 37° C., 5% CO2 and imaged with the Incucyte S3 after 4 h and 24 h
Image data was processed using Incucyte 2021, a software to identify cells and red fluorescent intensity. Screener was used to further process data. Data was normalized as % effect of the signal between median values of the on-plate controls of DMSO and 100 nM Evolocumab according to the formula % effect=−100*(x−DMSO)/(Evolocumab−DMSO) where x equals the measured signal. Concentration response data of the normalized values were fitted using a four-parameter logistic fit.

[3] = target: T1, PCSK9; test: biochemical
Target sequence in this assay (Q8NBP7 with tags, fused parts or gaps V474I/G670E): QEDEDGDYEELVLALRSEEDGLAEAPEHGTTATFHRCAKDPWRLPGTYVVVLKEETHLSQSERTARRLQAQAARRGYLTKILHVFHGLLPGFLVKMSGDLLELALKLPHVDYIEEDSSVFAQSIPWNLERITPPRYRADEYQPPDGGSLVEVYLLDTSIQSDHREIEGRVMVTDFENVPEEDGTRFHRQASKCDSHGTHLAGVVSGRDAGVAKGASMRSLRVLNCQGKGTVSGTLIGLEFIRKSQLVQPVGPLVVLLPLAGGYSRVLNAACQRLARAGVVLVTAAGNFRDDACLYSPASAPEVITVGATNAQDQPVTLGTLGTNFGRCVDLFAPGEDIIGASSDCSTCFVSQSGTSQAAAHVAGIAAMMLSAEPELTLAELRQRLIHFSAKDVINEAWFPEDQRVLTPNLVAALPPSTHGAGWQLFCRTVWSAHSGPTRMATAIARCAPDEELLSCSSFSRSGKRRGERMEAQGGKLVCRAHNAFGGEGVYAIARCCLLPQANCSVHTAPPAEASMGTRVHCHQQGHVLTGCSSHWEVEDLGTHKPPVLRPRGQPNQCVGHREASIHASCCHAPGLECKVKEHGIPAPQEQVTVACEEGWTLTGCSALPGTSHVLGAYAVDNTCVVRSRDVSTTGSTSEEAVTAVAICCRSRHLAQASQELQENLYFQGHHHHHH

[4] = target: T2, potassium ion channel hERG (human Ether-á-go-go-Related Gene) (Homo sapiens, UniProt Q12809); test: Assay 5 - hERG assay (SyncroPatch 384PE patch clamp, CHO cells); format: cell-based; conditions: geometric mean, CHO cells over-expressing hERG, read-out: Assay 5 (hERG Hu CHO IF EPh CR-Syncro) GMean IC50
T2 construct: expressed in transfected cells; host or cells: Chinese hamster ovary K1 (CHO)
Protocol: Assay 5—hERG Assay (Human Ether-á-go-go-Related Gene)
This assay (human Ether-á-go-go-Related Gene) measures activity of the compounds at the potassium ion channel hERG (human Ether-á-go-go-Related Gene).
Experiments were performed on the SyncroPatch 384PE high throughput patch clamp platform at room temperature and medium resistance chips with 4 patch holes per site. Chinese hamster ovary K1 (CHO) cell lines over-expressing the ion channel of choice (hERG) were used in assay-ready format and kept in liquid nitrogen or were used from live culture. Cells were either thawed and diluted in HBSS or were detached from flasks and resuspended in HBSS. HBSS comprised 140 mM NaCl, 4 mM KCl, 10 mM HEPES and 5 mM Glucose (pH 7.4). The internal patch clamp solution was KF 120 mM, KCl 20 mM, HEPES 10 mM, EGTA 10 mM, and 25 μM Escin (pH 7.2). After the sealing process was complete, the external solution was exchanged for external patch clamp solution comprising NaCl 80 mM, KCl 4 mM, HEPES 10 mM, CaCl2 2 mM, MgCl2 1 mM, glucose 5 mM, and NMDG 60 mM (pH 7.4). All solutions were stored at room temperature, except Escin, which was stored at 4° C. All test compounds were dispensed in greiner-bio 384 well plates and tested in a 6 point cumulative assay (final DMSO concentration 0.33%). Only wells that passed previously agreed acceptance criteria for this platform were used in this analysis (30 MegaOhm seal resistance, Z prime>0.4 and current size>0.2 nA).

T2 sequence (Q12809 whole entry): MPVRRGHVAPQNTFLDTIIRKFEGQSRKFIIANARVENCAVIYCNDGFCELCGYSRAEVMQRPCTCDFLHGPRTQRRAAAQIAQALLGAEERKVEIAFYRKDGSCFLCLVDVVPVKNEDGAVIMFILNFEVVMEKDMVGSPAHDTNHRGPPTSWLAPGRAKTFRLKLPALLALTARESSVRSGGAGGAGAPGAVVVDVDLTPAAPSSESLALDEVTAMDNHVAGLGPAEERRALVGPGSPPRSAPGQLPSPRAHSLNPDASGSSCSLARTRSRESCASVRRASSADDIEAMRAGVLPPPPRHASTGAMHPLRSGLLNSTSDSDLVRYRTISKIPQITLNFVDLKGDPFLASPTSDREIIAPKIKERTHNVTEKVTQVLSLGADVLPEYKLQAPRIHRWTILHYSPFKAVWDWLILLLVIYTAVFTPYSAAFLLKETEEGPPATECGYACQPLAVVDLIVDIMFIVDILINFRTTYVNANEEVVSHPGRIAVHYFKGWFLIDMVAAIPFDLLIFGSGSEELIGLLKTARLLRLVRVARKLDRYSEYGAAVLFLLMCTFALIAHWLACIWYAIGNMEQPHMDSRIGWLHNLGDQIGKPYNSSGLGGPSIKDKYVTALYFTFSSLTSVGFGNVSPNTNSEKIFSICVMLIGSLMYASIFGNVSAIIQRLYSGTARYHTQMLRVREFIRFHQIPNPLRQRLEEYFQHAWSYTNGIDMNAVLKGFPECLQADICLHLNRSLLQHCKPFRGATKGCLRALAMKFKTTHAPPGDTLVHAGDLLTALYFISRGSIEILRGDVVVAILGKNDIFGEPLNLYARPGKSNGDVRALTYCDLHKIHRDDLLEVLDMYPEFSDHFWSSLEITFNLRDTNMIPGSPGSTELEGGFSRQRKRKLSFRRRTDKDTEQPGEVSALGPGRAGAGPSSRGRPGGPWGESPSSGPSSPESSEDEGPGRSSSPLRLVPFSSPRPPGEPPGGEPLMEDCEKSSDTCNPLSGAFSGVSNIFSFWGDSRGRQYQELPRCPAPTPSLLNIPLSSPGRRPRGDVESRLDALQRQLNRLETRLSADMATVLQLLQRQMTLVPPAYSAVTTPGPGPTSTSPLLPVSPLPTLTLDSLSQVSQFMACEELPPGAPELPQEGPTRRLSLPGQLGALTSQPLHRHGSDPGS
Chain of GSK3b (Glycogen synthase kinase-3 beta) (P49841 whole entry): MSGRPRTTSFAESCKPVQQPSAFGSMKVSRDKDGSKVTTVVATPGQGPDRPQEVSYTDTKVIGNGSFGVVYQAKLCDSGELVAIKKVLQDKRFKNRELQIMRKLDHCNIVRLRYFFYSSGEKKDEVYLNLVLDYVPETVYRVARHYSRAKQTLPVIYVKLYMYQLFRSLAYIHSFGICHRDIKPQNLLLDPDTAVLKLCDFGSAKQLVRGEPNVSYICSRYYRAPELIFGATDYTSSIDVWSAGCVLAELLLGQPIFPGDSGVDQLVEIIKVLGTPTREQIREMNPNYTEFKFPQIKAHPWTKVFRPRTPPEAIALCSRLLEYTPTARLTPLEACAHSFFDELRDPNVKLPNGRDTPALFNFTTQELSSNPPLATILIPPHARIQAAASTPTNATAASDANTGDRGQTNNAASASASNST

SMILES | IC50 [1] | IC50 [2] | IC50 [3] | IC50 [4]
O=c1ccccn1-c1ccc(N[C@H]2CC[C@H](Nc3nc4cc(Br)cnc4s3)C2)nc1 [Compound 87, 6′-(((1S,3S)-3-((6-Bromothiazolo[5,4-b]pyridin-2-yl)amino)cyclopentyl)amino)-2H-[1,3′-bipyridin]-2-one] | 6.74 µM | 410 nM | 1.4 nM | 4.31 µM
N#Cc1ccc2nc(N[C@H]3CC[C@H](Nc4ccc(-n5ccccc5=O)cn4)C3)oc2c1 [Example 5, 2-(((1S,3S)-3-((2-Oxo-2H-[1,3′-bipyridin]-6′-yl)amino)cyclopentyl)amino)benzo[d]oxazole-6-carbonitrile] | 5.52 µM | 1720 nM | 8.9 nM | 6 µM
Cc1ccc2nc(N[C@H]3CC[C@H](Nc4ccc(-n5ccccc5=O)cn4)C3)sc2c1 [Example 8, 6′-(((1S,3S)-3-((6-Methylbenzo[d]thiazol-2-yl)amino)cyclopentyl)amino)-2H-[1,3′-bipyridin]-2-one] | > 10 µM |  | 2080 nM | 6.32 µM
N#Cc1ccc2sc(N[C@H]3CC[C@H](Nc4ccc(-n5ccccc5=O)cn4)C3)nc2c1 [Example 9, 2-(((1S,3S)-3-((2-Oxo-2H-[1,3′-bipyridin]-6′-yl)amino)cyclopentyl)amino)benzo[d]thiazole-5-carbonitrile] | 1.51 µM |  | 17.9 nM | 3.56 µM
O=c1ccc(Cl)cn1-c1ccc(N[C@H]2CC[C@H](Nc3nc4cccnc4o3)C2)nc1 [Example 13, 5-Chloro-6′-(((1S,3S)-3-(oxazolo[5,4-b]pyridin-2-ylamino)cyclopentyl)amino)-2H-[1,3′-bipyridin]-2-one] | > 10 µM | 1600 nM | 13.3 nM | 27.8 µM
COc1ccc(=O)n(-c2ccc(N[C@H]3CC[C@H](Nc4nc5cccnc5o4)C3)nc2)c1 [Example 14, 5-Methoxy-6′-(((1S,3S)-3-(oxazolo[5,4-b]pyridin-2-ylamino)cyclopentyl)amino)-2H-[1,3′-bipyridin]-2-one] | 0.423 µM | 632 nM | 25.5 nM | > 40 µM
N#Cc1ccc(=O)n(-c2ccc(N[C@H]3CC[C@H](Nc4nc5cccnc5o4)C3)nc2)c1 [Example 17, 6′-(((1S,3S)-3-(Oxazolo[5,4-b]pyridin-2-ylamino)cyclopentyl)amino)-2-oxo-2H-[1,3′-bipyridine]-5-carbonitrile] | > 10 µM |  | 30.5 nM | > 40.1 µM
COc1ccnc2[nH]c(N[C@H]3CC[C@H](Nc4ccc(-n5ccccc5=O)cn4)C3)nc12 [Example 27, 6′-(((1S,3S)-3-((7-Methoxy-3H-imidazo[4,5-b]pyridin-2-yl)amino)cyclopentyl)amino)-2H-[1,3′-bipyridin]-2-one] | 2.49 µM |  | 49 nM | > 40 µM
Fc1cccnc1-c1ccc(N[C@H]2CC[C@H](Nc3nc4cccnc4[nH]3)C2)nc1 [Example 30, (1S,3S)—N^1-(3-Fluoro-[2,3′-bipyridin]-6′-yl)-N^3-(3H-imidazo[4,5-b]pyridin-2-yl)cyclopentane-1,3-diamine] | > 10 µM |  | 34.5 nM | 3.15 µM
O=c1cccnn1-c1cnc(N[C@H]2CC[C@H](Nc3nc4cccnc4[nH]3)C2)nc1 [Example 31, 2-(2-(((1S,3S)-3-((3H-Imidazo[4,5-b]pyridin-2-yl)amino)cyclopentyl)amino)pyrimidin-5-yl)pyridazin-3(2H)-one] | > 10 µM |  | 25.1 nM | > 40.1 µM
Fc1cccc(OC(F)F)c1-c1ccc(N[C@H]2CC[C@H](Nc3nc4cccnc4[nH]3)C2)nc1 [Example 32, (1S,3S)—N^1-(5-(2-(Difluoromethoxy)-6-fluorophenyl)pyridin-2-yl)-N^3-(3H-imidazo[4,5-b]pyridin-2-yl)cyclopentane-1,3-diamine] | > 10 µM |  | 21 nM | 2.22 µM
Cc1ncc(-c2ccc(=O)n(-c3ccc(N[C@H]4CC[C@H](Nc5nc6cccnc6[nH]5)C4)nc3)c2)cn1 [Example 53, 6′-(((1S,3S)-3-((3H-Imidazo[4,5-b]pyridin-2-yl)amino)cyclopentyl)amino)-5-(2-methylpyrimidin-5-yl)-2H-[1,3′-bipyridin]-2-one] | 3.86 µM |  | 19 nM | > 40 µM
O=c1ccccn1-c1ccc(N[C@H]2CC[C@H](Nc3nc4cc(C5CC5)cnc4[nH]3)C2)nc1 [Example 55, 6′-(((1S,3S)-3-((6-Cyclopropyl-3H-imidazo[4,5-b]pyridin-2-yl)amino)cyclopentyl)amino)-2H-[1,3′-bipyridin]-2-one] | 1.77 µM |  | 2.6 nM | > 40 µM
O=C1CN(c2ccc(N[C@H]3CC[C@H](Nc4nc5cccnc5[nH]4)C3)nc2)C(=O)N1 [Example 65, 1-(6-(((1S,3S)-3-((3H-Imidazo[4,5-b]pyridin-2-yl)amino)cyclopentyl)amino)pyridin-3-yl)imidazolidine-2,4-dione] | 8.19 µM |  | 7.8 nM | > 40 µM
COc1ccccc1-c1ccc(N[C@H]2CC[C@H](Nc3nc4cccnc4[nH]3)C2)nc1 [Example 66, (1S,3S)—N^1-(3H-Imidazo[4,5-b]pyridin-2-yl)-N^3-(5-(2-methoxyphenyl)pyridin-2-yl)cyclopentane-1,3-diamine] | > 10 µM |  | 166 nM | 1.94 µM
Fc1ccccc1-c1ccc(N[C@H]2CC[C@H](Nc3nc4cccnc4[nH]3)C2)nc1 [Example 69, (1S,3S)—N^1-(5-(2-Fluorophenyl)pyridin-2-yl)-N^3-(3H-imidazo[4,5-b]pyridin-2-yl)cyclopentane-1,3-diamine] | > 10 µM |  | 83 nM | 1.17 µM
O=c1ccccn1-c1ccc(N[C@H]2CC[C@H](Nc3nc4cccnc4[nH]3)C2)cc1 [Example 74, 1-(4-(((1S,3S)-3-((3H-Imidazo[4,5-b]pyridin-2-yl)amino)cyclopentyl)amino)phenyl)pyridin-2(1H)-one] | > 10 µM |  | 173 nM | > 40 µM
Cn1cccc(-c2cnc(N[C@H]3CC[C@H](Nc4nc5cccnc5[nH]4)C3)cn2)c1=O [Example 75, 3-(5-(((1S,3S)-3-((3H-Imidazo[4,5-b]pyridin-2-yl)amino)cyclopentyl)amino)pyrazin-2-yl)-1-methylpyridin-2(1H)-one] | > 10 µM |  | 16.8 nM | > 40 µM
O=c1ccccn1-c1ccc(N[C@H]2CC[C@H](Nc3nc4cc(CO)ccc4s3)C2)nc1 [Example 84, 6′-(((1S,3S)-3-((5-(Hydroxymethyl)benzo[d]thiazol-2-yl)amino)cyclopentyl)amino)-2H-[1,3′-bipyridin]-2-one] | > 10 µM |  | 239 nM | > 40.1 µM
O=c1ccc(-c2nn[nH]n2)cn1-c1ccc(N[C@H]2CC[C@H](Nc3nc4cccnc4[nH]3)C2)nc1 [Example 86, 6′-(((1S,3S)-3-((3H-Imidazo[4,5-b]pyridin-2-yl)amino)cyclopentyl)amino)-5-(2H-tetrazol-5-yl)-2H-[1,3′-bipyridin]-2-one] |  | 187 nM | 3.5 nM | 
